Measurements reported in patent US7078395B1, “Methods for treating or preventing cancer by preventing, inhibiting or arresting cell cycling” (priority 1999, dated 2006).

Key:
[1] = system: MCF-7 breast cancer cells; settings: reported by Seegers et al. (8); cited from earlier work
[2] = system: MDA-MB-435 breast cancer cells; settings: oral, 75 mg/kg/day for 29 days, SCID mice (11); cited from earlier work
[3] = system: Meth A sarcoma; settings: 100 mg/kg, p.o., every other day, 12 day, CH3 mice (10); cited from earlier work
[4] = system: B16 melanoma; settings: 100 mg/kg, p.o., every other day, 12 day, CH3 mice (10); cited from earlier work
[5] = rats, oral (16); cited from earlier work
[6] = system: MCF-7 breast cancer cells; assay: Irreversible inhibition of cell growth, Stage 1 and Stage 2 (Coulter cell counter); assay type: cell-based
Protocol: MCF-7 breast cancer cells were seeded into multi-well culture plates at a density of 10^5 cells/well. Cells were allowed to attach and grown until about 30% confluent when they were treated as follows:
Cells were grown for 6 days in growth medium containing the above drugs with changes of medium/drug every 3 days. At the end of this period cell numbers were counted using a Coulter cell counter.
After treatment of cells for a 6-day period with the above drugs cells were re-seeded at a density of 10^4 Cells/well. No further treatments were added. Cells were allowed to continue to grow for a further 6 days in the presence of growth medium. At the end of this period cell numbers were again counted.
Stages 1 and 2 described above were repeated using Control—no treatment, EMATE 20 μM and EMATE 5 μM.
MCF-7 breast cancer cells were seeded into multi-well culture plates at a density of 10^5 cells/well. Cells were allowed to attach and grown until about 30% confluent when they were treated as follows: • Control—no treatment • Compound of Interest (COI) 20 μM
Cells were grown for 6 days in growth medium containing the COI with changes of medium/COI every 3 days. At the end of this period cell numbers were counted using a Coulter cell counter.
After treatment of cells for a 6-day period with the COI cells were re-seeded at a density of 10^4 cells/well. No further treatments were added. Cells were allowed to continue to grow for a further 6 days in the presence of growth medium. At the end of this period cell numbers were again counted.

[7] = system: MCF-7 breast cancer cells; assay: Cell morphology by photomicrographs; assay type: cell-based; settings: 10 μM
Protocol: MCF-7 (ER+) and MDA-MB-231 (ER−) breast cancer cells were obtained from the American Type Culture Collection (Rockville, Md.). Cells were routinely cultured in 25 cm^2 culture flasks in Eagle's minimum essential medium (EMEM) with Hepes buffer (20 mM). This medium was supplemented with L-glutamine (2 mM), sodium hydrogen carbonate (10 mM), 1% non-essential amino acids and 5% (v/v) foetal calf serum (FCS). Before adding test compounds, cells were washed with phosphate-buffered saline (PBS) and treatments added in phenol-red free medium containing 2% stripped FCS and supplements. The effects of 2-MeOE1 or 2-MeOEMATE on the growth of MCF-7 cells was assessed using a Cell Titer 96 cell proliferation assay (Promega, Southampton, Hants, UK) according to the manufacturers' instructions. For this, cells (5000 per well) were cultured in medium containing phenol-red and 10% FCS and were exposed to a drug for 4 days before the assay was performed. For MDA-MB-231 cells, cell numbers were determined using a Coulter counter.
Photomicrographs of control and treated cells were taken under normal conditions of light and exposure using an Olympus SL35 Type 12 camera under an Olympus CK2 microscope (×100 magnification).

Row | SMILES | concentrations cytotoxic to MCF-7 breast cancer cells [1] [μm] | reduction of tumour volumes compared with untreated controls [2] [%] | toxic side effects [2] | reduction of tumour growth [3] [%] | reduction of tumour growth [4] [%] | oral uterotrophic activity relative to estradiol [5] [times] | cell number, Stage 1 ([6]; 5 μM) | cell number, Stage 2 ([6]; 5 μM) | cell number, Stage 1 ([6]; 20 μM) | cell number, Stage 2 ([6]; 20 μM) | effect on cell morphology [7]
1 | COc1cc2c(cc1O)CC[C@@H]1[C@@H]2CC[C@]2(C)[C@@H](O)CC[C@@H]12 [2-MeOE2, 2-methoxyoestradiol] | ≥ 1 | 60 | No toxic side effects were detected | 57 | 83 |  |  |  |  |  | 
2 | CC12CCC3c4ccc(OS(N)(=O)=O)cc4CCC3C1CCC2=O (stereo not drawn) [EMATE, oestrone-3-O-sulphamate] |  |  |  |  |  | 100 | EMATE 5 μM = 139% control | EMATE 5 μM = 98% control | EMATE 20 μM = 119% control | EMATE 20 μM = 103% control | did not affect cell morphology
3 | C[C@]12CC[C@@H]3c4ccc(O)cc4CC[C@H]3[C@@H]1CCC2=O [Oestrone] |  |  |  |  |  |  |  |  |  |  | did not affect cell morphology
